Assay results from patent US6399542B1, “Alkoxyimino-substituted bicyclic compounds compositions containing the same and method of making such compounds” (Agro-Kanesho Co., Ltd., priority 1997, dated 2002).
Where two headings read alike, the source gives them in different places.

Legend:
[1] = test system: Puccinia recondita; test: Effect on Wheat brown rust (preventive spray test); assay type: in vivo; conditions: 7 days after inoculation
[2] = test system: Phytophthora infestans; assay type: in vivo; conditions: Tomato late blight, 5 days after inoculation
[3] = test system: Chochliobolus miyabeanus; test: Effect on Rice brown spot (preventive spray test); assay type: in vivo; conditions: 7 days after inoculation
[4] = test system: Erysiphe graminis; test: Effects on Barley powdery mildew (preventive spray test); assay type: in vivo; conditions: lesions counted seven days after inoculation
[5] = test system: Psecidoperonospora cubensis; test: Effect on Cucumber downy mildew (preventive spray test); assay type: in vivo; conditions: 7 days after inoculation
[6] = test system: Botrytis cinerea; test: Effect on Cucumber gray mold (cotyledon paper disc test); assay type: in vivo; conditions: 3 days after inoculation
[7] = test system: Rhizoctonia solani; test: Effect on Rice sheath blight (preventive spray test); conditions: 10 days after inoculation
Method: An emulsion of a compound of the present invention prepared in Preparation Example 2 was diluted with water and uniformly sprayed on 5 rice plant seedlings (variety: Koshihikari) in 4.5-leaf stage in each plastic pot having a diameter of 6 cm, with a spray gun. One day after the spraying, the seedlings were bundled at the second sheath with a string. Colonies of Rhizoctonia solani previously cultured in PSA culture medium were bored with a cork borer to obtain pieces having a diameter of 4 mm. The piece was put in the bundle, and kept in a high-humidity room at 25° C. until the examination. Ten days after the inoculation, the degree of the disease was examined, and the preventive rate (effect of inhibiting the disease) was calculated on the basis of the following standard:
Preventive rate=[1-D′/C′]×100
C′: Severity in untreated section
D′: Severity in treated section.

[8] = test system: Puccinia recondite; test: Penetration and translocation in wheat leaves (covered leaf tip, brown rust); assay type: in vivo
[9] = test system: Pyricularia oryzae; assay type: in vivo; conditions: Rice blast, 7 days after inoculation
[10] = conc. of active ingredient 20 ppm
[11] = conc. of active ingredient 100 ppm
[12] = conc. of active ingredient 4 ppm
[13] = conc. of active ingredient 200 ppm

CNC(=O)C(=NOC)c1ccccc1COc1cc(C)c2c(c1C)CCC2=NOC [e-23]
Preventive rate (%) [1, 10]: 100%
Preventive rate (%) [1, 11]: 100%
Preventive rate (%) [2, 10]: 100%
Preventive rate (%) [2, 11]: 100%
Preventive rate (%) [3, 10]: 98%
Preventive rate (%) [3, 11]: 98%
Preventive rate (%) [4, 12]: 100%
Preventive rate (%) [4, 10]: 100%
Preventive rate (%) [4, 11]: 100%
Preventive rate (%) [5, 10]: 96%
Preventive rate (%) [5, 11]: 100%
Preventive rate (%) [6, 10]: 86%
Preventive rate (%) [6, 11]: 96%
Preventive rate (%) [7, 10]: 64%
Preventive rate (%) [7, 11]: 69%

CO/N=C(/C(=O)OC)c1ccccc1COc1ccc2c(c1C)OCC2=NOC/C=C/Cl [a-61]
Preventive rate (%) [1, 12]: 91%
Preventive rate (%) [1, 10]: 100%
Preventive rate (%) [1, 11]: 100%
Preventive rate (%) [2, 10]: 89%
Preventive rate (%) [2, 11]: 91%
Preventive rate (%) [3, 12]: 49%
Preventive rate (%) [3, 10]: 72%
Preventive rate (%) [3, 11]: 91%
Preventive rate (%) [4, 12]: 99%
Preventive rate (%) [4, 10]: 100%
Preventive rate (%) [4, 11]: 100%
Preventive rate (%) [6, 10]: 91%
Preventive rate (%) [6, 11]: 85%
Preventive rate (%) [7, 10]: 60%
Preventive rate (%) [7, 11]: 96%

CNC(=O)/C(=N/OC)c1ccccc1COc1cc2c(cc1C)C(=NOC)CO2 [a-27]
Number of lesions formed within the mark to the tip [8, 13]: 0
Preventive rate (%) [8, 13]: 100%
Rate of the translocation perfect preventive conc. (%) [8, 13]: 100%
Preventive rate (%) [1, 12]: 98%
Preventive rate (%) [1, 10]: 100%
Preventive rate (%) [1, 11]: 100%
Preventive rate (%) [2, 12]: 95%
Preventive rate (%) [2, 10]: 95%
Preventive rate (%) [2, 11]: 95%
Preventive rate (%) [3, 10]: 77%
Preventive rate (%) [3, 11]: 83%
Preventive rate (%) [4, 12]: 100%
Preventive rate (%) [4, 10]: 100%
Preventive rate (%) [4, 11]: 100%
Preventive rate (%) [9, 10]: 77%
Preventive rate (%) [9, 11]: 82%

CNC(=O)C(=NOC)c1ccccc1COc1ccc2c(c1C)CCC2=NOC [e-16]
Number of lesions formed within the mark to the tip [8, 11]: 0
Preventive rate (%) [8, 11]: 100%
Rate of the translocation perfect preventive conc. (%) [8, 11]: 100%
Preventive rate (%) [1, 10]: 100%
Preventive rate (%) [1, 11]: 100%
Preventive rate (%) [2, 10]: 100%
Preventive rate (%) [2, 11]: 100%
Preventive rate (%) [4, 12]: 100%
Preventive rate (%) [4, 10]: 100%
Preventive rate (%) [4, 11]: 100%
Preventive rate (%) [5, 10]: 100%
Preventive rate (%) [5, 11]: 100%

COC=C(C(=O)OC)c1ccccc1COc1ccc2c(c1C)OCC2=NOC [a-13]
Preventive rate (%) [2, 10]: 100%
Preventive rate (%) [2, 11]: 100%
Preventive rate (%) [3, 10]: 88%
Preventive rate (%) [3, 11]: 96%
Preventive rate (%) [4, 12]: 100%
Preventive rate (%) [4, 10]: 100%
Preventive rate (%) [4, 11]: 100%
Preventive rate (%) [5, 10]: 96%
Preventive rate (%) [5, 11]: 100%
Preventive rate (%) [6, 10]: 96%
Preventive rate (%) [6, 11]: 100%
Preventive rate (%) [7, 10]: 97%
Preventive rate (%) [7, 11]: 97%

C=CCON=C1COc2c1ccc(OCc1ccccc1/C(=N\OC)C(=O)OC)c2C [a-59]
Preventive rate (%) [1, 12]: 90%
Preventive rate (%) [1, 10]: 98%
Preventive rate (%) [1, 11]: 100%
Preventive rate (%) [4, 10]: 92%
Preventive rate (%) [4, 11]: 100%
Preventive rate (%) [6, 10]: 73%
Preventive rate (%) [6, 11]: 76%
Preventive rate (%) [7, 10]: 60%
Preventive rate (%) [7, 11]: 72%

CNC(=O)C(=NOC)c1ccccc1COc1cc2c(cc1C)C(=NOC)CC2 [e-27]
Number of lesions formed within the mark to the tip [8, 11]: 0
Preventive rate (%) [8, 11]: 100%
Rate of the translocation perfect preventive conc. (%) [8, 11]: 100%
Preventive rate (%) [1, 12]: 100%
Preventive rate (%) [1, 10]: 100%
Preventive rate (%) [1, 11]: 100%
Preventive rate (%) [2, 12]: 100%
Preventive rate (%) [2, 10]: 100%
Preventive rate (%) [2, 11]: 100%
Preventive rate (%) [3, 12]: 96%
Preventive rate (%) [3, 10]: 99%
Preventive rate (%) [3, 11]: 99%
Preventive rate (%) [4, 12]: 99%
Preventive rate (%) [4, 10]: 99%
Preventive rate (%) [4, 11]: 100%
Preventive rate (%) [5, 12]: 100%
Preventive rate (%) [5, 10]: 100%
Preventive rate (%) [5, 11]: 100%

C#CCON=C1COc2c1ccc(OCc1ccccc1/C(=N\OC)C(=O)OC)c2C [a-70]
Preventive rate (%) [1, 12]: 99%
Preventive rate (%) [1, 10]: 100%
Preventive rate (%) [1, 11]: 100%
Preventive rate (%) [2, 10]: 95%
Preventive rate (%) [2, 11]: 95%
Preventive rate (%) [4, 10]: 100%
Preventive rate (%) [4, 11]: 100%
Preventive rate (%) [5, 10]: 88%
Preventive rate (%) [5, 11]: 91%
Preventive rate (%) [6, 10]: 53%
Preventive rate (%) [6, 11]: 85%
Preventive rate (%) [7, 10]: 80%
Preventive rate (%) [7, 11]: 90%

CNC(=O)/C(=N/OC)c1ccccc1COc1ccc2c(c1C)OC(C)C2=NOC (stereo not drawn) [b-7]
Preventive rate (%) [1, 12]: 99%
Preventive rate (%) [1, 10]: 100%
Preventive rate (%) [1, 11]: 100%
Preventive rate (%) [2, 10]: 95%
Preventive rate (%) [2, 11]: 100%
Preventive rate (%) [3, 12]: 56%
Preventive rate (%) [3, 10]: 95%
Preventive rate (%) [3, 11]: 96%
Preventive rate (%) [4, 12]: 99%
Preventive rate (%) [4, 10]: 100%
Preventive rate (%) [4, 11]: 100%
Preventive rate (%) [9, 10]: 89%
Preventive rate (%) [9, 11]: 100%
Preventive rate (%) [5, 12]: 89%
Preventive rate (%) [5, 10]: 93%
Preventive rate (%) [5, 11]: 96%
Preventive rate (%) [7, 10]: 86%
Preventive rate (%) [7, 11]: 98%

CNC(=O)/C(=N/OC)c1ccccc1COc1ccc2c(c1C)OCC2=NOC/C=C/Cl [a-62]
Preventive rate (%) [1, 12]: 100%
Preventive rate (%) [1, 10]: 100%
Preventive rate (%) [1, 11]: 100%
Preventive rate (%) [2, 10]: 97%
Preventive rate (%) [2, 11]: 98%
Preventive rate (%) [3, 10]: 83%
Preventive rate (%) [3, 11]: 88%
Preventive rate (%) [4, 12]: 98%
Preventive rate (%) [4, 10]: 100%
Preventive rate (%) [4, 11]: 100%
Preventive rate (%) [5, 12]: 94%
Preventive rate (%) [5, 10]: 100%
Preventive rate (%) [5, 11]: 100%
Preventive rate (%) [6, 10]: 96%
Preventive rate (%) [6, 11]: 100%
Preventive rate (%) [7, 10]: 91%
Preventive rate (%) [7, 11]: 98%

COC=C(C(=O)OC)c1ccccc1COc1ccc2c(c1C)OCCC2=NOC [c-13]
Number of lesions formed within the mark to the tip [8, 11]: 0
Preventive rate (%) [8, 11]: 100%
Rate of the translocation perfect preventive conc. (%) [8, 11]: 100%
Preventive rate (%) [1, 12]: 100%
Preventive rate (%) [1, 10]: 100%
Preventive rate (%) [1, 11]: 100%
Preventive rate (%) [2, 12]: 95%
Preventive rate (%) [2, 10]: 100%
Preventive rate (%) [2, 11]: 100%
Preventive rate (%) [3, 12]: 82%
Preventive rate (%) [3, 10]: 93%
Preventive rate (%) [3, 11]: 100%
Preventive rate (%) [4, 12]: 100%
Preventive rate (%) [4, 10]: 100%
Preventive rate (%) [4, 11]: 100%
Preventive rate (%) [9, 10]: 94%
Preventive rate (%) [9, 11]: 100%
Preventive rate (%) [5, 12]: 100%
Preventive rate (%) [5, 10]: 100%
Preventive rate (%) [5, 11]: 100%
Preventive rate (%) [6, 10]: 49%
Preventive rate (%) [6, 11]: 58%

CON=C(C(=O)OC)c1ccccc1COc1ccc2c(c1C)OC(C)CC2=NOC (racemic) [d-10]
Number of lesions formed within the mark to the tip [8, 11]: 0
Preventive rate (%) [8, 11]: 100%
Rate of the translocation perfect preventive conc. (%) [8, 11]: 100%
